Measured values taken from patent publication US20220288156A1, “TREATMENT” (QUEEN MARY UNIVERSITY OF LONDON, priority 2019, published 2022).

How the values were obtained:
[1] = system: AAC model of heart failure; assay: Abdominal aortic constriction (AAC) pressure overload heart failure model, echocardiography; type: in vivo, mouse; details: for fractional shortening (FS %): prevention mode
Text: Abdominal AAC, a common experimental procedure, was used to elicit pressure overload-induced heart failure in murine models. AAC provides a time-dependent, reproducible model of HF characterised by a significant rise in left ventricular weight, deleterious myocardial dilation, and a reduction in cardiac inotropy, and rise in myocardial fibrosis. Physiologically this mimics some of the clinical features of human aortic stenosis.
Male C57BL6 mice (Charles River) underwent AAC surgery at 4-5 weeks of age (between 20 and 22 g). Mice were anaesthetised with isoflurane, placed in a supine position on the procedure table, and an incision made along the ventral underbelly, extending from the xiphoid process of the sternum, down to the groin to reveal the abdominal muscle. The abdominal muscle was then cut the same distance along the linea alba to allow easy reattachment of the two halves. The two sides of the abdominal muscles were clipped back to reveal the abdominal gastrointestinal organs, and these were carefully manoeuvred to expose the underlying abdominal aorta. The aorta was cleaned of visceral fats, and carefully separated from parallel vasculature, whilst avoiding any spinal nerves. The abdominal aorta was then constricted using a 6-0 silk suture tied to the width of a 27-gauge needle at a position rostral to the renal artery bifurcation. Great care was taken to ensure the knot remained taut after tying. This was to ensure minimal variability amongst aortic lumen occlusion between animals, and therefore minimise differences in the degree of aortic stenosis. The skin and abdominal muscles were closed with a 6-0 silk suture thread. SHAM operated mice underwent the same operation with the exception of aortic constriction. In an effort to ensure reproducibility amongst AAC surgeries only male mice weighing between 20 and 22 g (correlating to 4-5 weeks of age) were used. Echocardiography was performed up to 3 days prior to surgery, 3 weeks following surgery, and then at 6 (and/or 12 weeks) following surgery. At the experimental end-point, mice were sacrificed and their lungs, kidneys and hearts excised. Hearts were halved longitudinally and either snap frozen in liquid nitrogen (for immunohistochemistry) or stored in an RNA later stabilisation solution (for RT-quantitative PCR) (ThermoFisher Scientific, Hertfordshire, UK).
Cilengitide (Bachem) was stored as a […] solution in saline at −20° C. prior to use, before thawing and serial diluting to an appropriate concentration with sterile saline for use. Injections were administered 3 times per week at the indicated doses intraperitoneally (IP). Low dose Cilengitide (ldCil) is classified as 50 μg/kg (27).
Cardiac function was assessed by transthoracic echocardiography using a VisualSonics Vevo 770 30-MHz transduction probe. Mice were anaesthetised with isoflurane (1.5% in O2), hair removed from their chest with hair removal cream, and then were placed in a supine position onto a warmed pad (46° C.). The chest was covered in ultrasound gel, and the transduction probe was positioned adjacent to the mitral valve, at the tips of the papillary muscles, and images were taken just below this to ensure positional reproducibility. LV internal diameter (LVID) and LV posterior wall thicknesses at diastole (d) and systole (s) were measured from short-axis M-mode images. LV ejection fraction (EF %) was calculated as follows: LVEF %=[(LVIDd)^3−(LVIDs)^3]/(LVIDd)^3×100; LV fractional shortening (FS %) was calculated as follows: LVFS %=(LVIDd−LVIDs)/LVIDd×100. Values were averaged across three beats. All efforts were made to ensure consistency between mouse echocardiographs, including: pad temperature to be maintained at 46° C., isoflurane anaesthesia at 1.5%, oxygen flow at 1.5 L/M, and cardiac function to be measured in the same anatomical location throughout.

[2] = Mean arterial blood pressure in AAC model; type: in vivo, mouse; details: intervention mode; 6 weeks post-AAC surgery
Method: Blood pressure was recorded in anaesthetised mice via intra-arterial cannulation of a carotid artery 6 weeks post-AAC surgery, using a Microtip pressure catheter (Millar instruments). Mice were placed in a supine position on a pre-warmed heating mat (46° C.), and a midline incision made extending the length of the neck with surgical scissors. The large salivary glands were gently moved laterally, and a single carotid artery was located for cannulation. The carotid artery was blunt dissected to remove visceral fats, and then ligated with surgical suture at its most rostral and caudal ends, leaving a space of roughly 2 mm in between. A small incision was made between the two ties using fine dissection spring-tip scissors, and a microtip pressure catheter was inserted into the artery. The region of the artery housing the catheter was tied in place, and the caudal tie loosened to allow blood flow into the pressure catheter. Mice were allowed to recover for 5 min, or until the blood pressure trace steadied. MABP was then averaged across a 30 s period using MATLAB analysis. All efforts were made to ensure mouse body temperature, and levels of anaesthesia in particular, remained constant between animals.

[3] = system: AAC model of heart failure; assay: Cardiac hypertrophy in AAC model (WGA cardiomyocyte perimeter, heart:body weight); type: in vivo, mouse; details: intervention mode, AAC surgery
Text: Male C57BL6 mice (Charles River) underwent AAC surgery at 4-5 weeks of age (between 20 and 22 g). Mice were anaesthetised with isoflurane, placed in a supine position on the procedure table, and an incision made along the ventral underbelly, extending from the xiphoid process of the sternum, down to the groin to reveal the abdominal muscle. The abdominal muscle was then cut the same distance along the linea alba to allow easy reattachment of the two halves. The two sides of the abdominal muscles were clipped back to reveal the abdominal gastrointestinal organs, and these were carefully manoeuvred to expose the underlying abdominal aorta. […] Hearts were halved longitudinally and either snap frozen in liquid nitrogen (for immunohistochemistry) or stored in an RNA later stabilisation solution (for RT-quantitative PCR) (ThermoFisher Scientific, Hertfordshire, UK).
5 μm snap-frozen sections were fixed in 10% acetone, washed in phosphate buffered saline, PBS, blocked in 5% normal goat serum/PBS for 1 h at room temperature and incubated with WGA directly conjugated to Alexa Fluor 488 (Invitrogen) (1:100) in blocking buffer (5% normal goat serum/PBS) for 2 h at room temperature. […] Images were taken with a Zeiss Axioplan microscope, and the cardiomyocyte size was analysed with ImageJ™ software. 100-200 cells per heart were measured to determine cardiomyocyte size.

[4] = system: AngII-stressed mouse cardiomyocytes; assay: Western blot of TCA cycle enzymes in AngII-stressed cardiomyocytes; type: cell-based; details: Western blot densitometry
Method: Following 5 days culture at 37° C., 5% CO2, primary mouse cardiomyocytes were serum starved for 24 h in a 0.5 FBS-DMEM media. On day 6 cells were washed and refed with complete cardiomyocyte growth medium plus or minus 1 μM angiotensin II (Alfa Aesar), and this was repeated on day 7. In tandem to angiotensin II treatment, cells were either treated with vehicle or low dose Cilengitide (20 nM) (Bachem). On 8-day cardiomyocytes were lysed for RNA analysis.
Cardiomyocytes were prepared and treated as above. At the end of the experiment, cells were lysed with RIPA buffer for 10 min on ice and the cell debris pelleted by centrifugation of the lysate at 9300 g for 10 min at 4° C. Protein concentration was determined from the cell supernatant and 20 μg protein loaded onto 10% gels. Membranes were probed for succinate dehydrogenase (Abcam, ab178423), pyruvate dehydrogenase (Abcam, ab131263), aconitase (Abcam, ab129069) and GAPDH (Millipore, AB2302). Densitometric readings of band intensities were obtained using the JmageJ™ software.

[5] = system: pathological angiogenesis; details: cited from earlier work
[6] = intervention mode, AAC surgery, ldCil 50 μg/kg 3 times a week from 3-6 weeks post-surgery
[7] = low doses, 50 μg/kg in vivo or 2 nM in vitro

Structure (SMILES): CC(C)[C@H]1C(=O)N[C@@H](CCCN=C(N)N)C(=O)NCC(=O)N[C@@H](CC(=O)O)C(=O)N[C@H](Cc2ccccc2)C(=O)N1C [Cilengitide, c(f*VRGD)]
- fractional shortening over time ([1]; AAC surgery, ldCil 3-6 weeks post-surgery, between 3 and 6 weeks): elevated fractional shortening significantly
- persistence of fractional shortening rescue after treatment cessation ([1]; AAC surgery, ldCil 3-6 weeks post-surgery, followed to 12 weeks): sustained up until 12 weeks post-surgery
- FS % over time ([1]; SHAM surgery, ldCil 3-6 weeks post-surgery, between 3 and 6 weeks or 6 and 12 weeks): not significantly altered
- endpoint FS % [1, 6]: rescued
- endpoint ejection fraction (EF %) [1, 6]: rescued
- endpoint left ventricular internal diameter during systole (LVID) [1, 6]: rescued
- fractional shortening (FS %) ([1]; AAC surgery, 50 μg/kg IP 3 times a week for 7 weeks immediately after surgery, endpoint 7 weeks): restored fractional shortening to that observed in SHAM treated mice
- fractional shortening (FS %) ([1]; AAC surgery, 500 μg/kg IP 3 times a week for 7 weeks): but not 500 μg/kg, Cilengitide corrects the fractional shortening effects
- fractional shortening (FS %) ([1]; SHAM surgery, 50 μg/kg IP 3 times a week for 7 weeks): no significant effect
- mean arterial blood pressure (MABP) [2]: not affected
- heart:body weight ratio [3]: blunted increases
- cardiomyocyte perimeter (WGA stained sections) ([3]; compared with vehicle): reduced
- pyruvate dehydrogenase protein expression [4]: rescues the elevated expression
- chemotherapy efficacy in cancer models in vivo ([5]; ldCil with chemotherapy): improve chemotherapy efficacy
- effect on quiescent vasculature [5, 7]: no apparent effects
- pathological angiogenesis [5, 7]: enhance pathological angiogenesis
